Values joined by “and” are separate entries in the source; they are usually repeats but may differ in a detail not shown here. Equal values may be shown once. Read-outs that look alike come from different tables or passages of the source.
What was measured:
[1] = tested on: P. falciparum (3D7); test: Activity against P. falciparum 3D7 cultures, 72 h (PfLDH growth inhibition / flow cytometry); type: cell-based, Plasmodium falciparum
Protocol: Antimalarial activity against P. falciparum 3D7 was tested by TCGLS, Kolkata, India, using the lactate dehydrogenase (PfLDH) growth inhibition assay. […] Plates were shaken to ensure mixing and were placed in the dark at 21 °C for 20 min. […] P. falciparum strain (3D7) was obtained from BEI Resources.
Viability was assessed in the second cycle by flow cytometry, following labeling with 2 μM Syto-61 (Thermo Fisher Scientific)[48],[49]. Viability represents the parasitemia normalized to untreated and “kill” controls that were treated with 2 μM dihydroartemisinin (DHA; Sigma-Aldrich) for 48–72 h. For drug pulse assays, tightly synchronized Cam3.II-rev[50] parasites (1–1.5% parasitemia, 0.2% final hematocrit) were added to the plates and incubated for 6 h. Drugs were removed and the parasitemia assessed in the trophozoite stage of the next cycle.

[2] = biological target: PfAsnRS (Plasmodium falciparum, UniProt O96198); test: biochemical; conditions: for ATP consumption: PfAsnRS, normalised to 1 (Fig 3C)
[3] = biological target: T1, HsAsnRS (Homo sapiens, UniProt O43776); test: ATP consumption assay (Kinase-Glo), HsAsnRS; type: biochemical; conditions: for ATP consumption: HsAsnRS, normalised to 1 (Fig 3C)
T1 construct: HsAsnRS (residues M1–P548) and CDHsAsnRS (residues A98–P548); His6 (N, cleaved yes); made in house; host or cells: E. coli BL21 (DE3), pET11a
T1 sequence (O43776 1-548): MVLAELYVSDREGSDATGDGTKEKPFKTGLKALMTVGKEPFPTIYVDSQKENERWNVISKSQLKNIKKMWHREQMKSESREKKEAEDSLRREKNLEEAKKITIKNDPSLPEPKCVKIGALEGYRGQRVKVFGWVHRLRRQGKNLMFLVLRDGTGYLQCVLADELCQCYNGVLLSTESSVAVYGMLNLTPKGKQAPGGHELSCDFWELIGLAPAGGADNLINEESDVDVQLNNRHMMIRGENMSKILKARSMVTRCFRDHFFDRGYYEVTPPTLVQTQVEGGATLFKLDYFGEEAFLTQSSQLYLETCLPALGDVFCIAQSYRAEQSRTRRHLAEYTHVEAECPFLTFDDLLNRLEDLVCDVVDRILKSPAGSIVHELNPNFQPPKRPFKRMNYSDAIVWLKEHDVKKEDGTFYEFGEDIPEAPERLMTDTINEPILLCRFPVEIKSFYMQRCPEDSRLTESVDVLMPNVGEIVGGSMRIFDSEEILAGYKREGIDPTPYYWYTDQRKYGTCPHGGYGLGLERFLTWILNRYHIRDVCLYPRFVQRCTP

[4] = tested on: DSM265-selected recrudescent Dd2-B2 cultures (G7, F3); test: Sensitivity of DSM265-selected bulk recrudescent cultures; type: cell-based, Plasmodium falciparum; conditions: for IC50: Plasmodium falciparum
[5] = tested on: P. falciparum Dd2-B2 clone; test: microbe, parasite or virus in culture; type: cell-based, Plasmodium falciparum
Text: Wells were monitored daily by smear during the first 7 days to ensure parasite clearance, during which media was changed daily. […] Whole-genome sequencing analysis employed MiSeq data from libraries of 2 × 300 bp paired end reads.

[6] = Plasmodium falciparum, 3D7, 72 h, read-out: Pf3D7 IC50(72 h), 72 h, mean ± SD or duplicate values
[7] = read-out: Pf3D7 IC50 (72h), individual biological repeats (source data of Table 1)
[8] = Plasmodium falciparum, 3D7, 72 h, read-out: Pf3D7 IC50 (72h), individual biological repeats (source data of Table 1)
[9] = Plasmodium falciparum, 3D7, read-out: activity against 3D7 cultures, value of earlier manuscript version quoted by reviewer, peer review file

PfAsnRS, sequence (O96198 entry or part of it): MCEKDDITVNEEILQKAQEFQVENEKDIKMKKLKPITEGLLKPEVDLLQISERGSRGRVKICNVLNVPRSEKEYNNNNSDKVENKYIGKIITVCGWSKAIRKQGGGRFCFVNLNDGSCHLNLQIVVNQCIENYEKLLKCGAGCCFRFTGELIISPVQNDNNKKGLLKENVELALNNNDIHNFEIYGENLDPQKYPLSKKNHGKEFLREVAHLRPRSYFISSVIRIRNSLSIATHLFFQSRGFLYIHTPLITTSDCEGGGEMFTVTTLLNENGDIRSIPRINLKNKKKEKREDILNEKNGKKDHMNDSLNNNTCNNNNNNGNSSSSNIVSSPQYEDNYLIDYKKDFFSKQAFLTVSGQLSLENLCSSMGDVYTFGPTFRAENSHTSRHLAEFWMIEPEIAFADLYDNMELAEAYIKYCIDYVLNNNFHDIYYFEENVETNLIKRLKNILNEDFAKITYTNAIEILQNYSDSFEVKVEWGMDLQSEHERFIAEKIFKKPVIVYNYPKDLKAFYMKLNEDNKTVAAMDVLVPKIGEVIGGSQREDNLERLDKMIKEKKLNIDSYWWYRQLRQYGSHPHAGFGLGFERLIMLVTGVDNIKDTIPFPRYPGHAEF

For `NS(=O)(=O)c1cccc(-c2cc3ncnc(N4CCN(Cc5ccc(F)cc5)CC4)c3s2)c1` [OSM-S-137], the IC50 [1, 6] was 4.4 ± 3 µM and the IC50 [1, 7] was 2.65 µM and 1.2 µM and 6.07 µM and 7.69 µM.

With `NS(=O)(=O)c1cccc(-c2cc3nc[nH]c(=O)c3s2)c1` [OSM-LO-88] the IC50 [1, 6] was 18.7 ± 1.8 µM, the IC50 [1, 8] was 19.2 µM and the IC50 [1, 7] was 21.9 µM and 18.6 µM and 17.5 µM and 16.5 µM.

With `Nc1ncnc2cc(-c3cccc(COS(N)(=O)=O)c3)sc12` [OSM-LO-81] the IC50 [1, 6] was 0.93 ± 0.24 µM, the IC50 [1, 8] was 1.1 µM and the IC50 [1, 9] was 0.9 µM. For the same compound, the IC50 [1, 7] was 1.33 µM and 0.74 µM and 0.761 µM and 0.909 µM and 0.753 µM.

For `Nc1ncnc2cc(-c3cccc(OS(N)(=O)=O)c3)sc12` [OSM-LO-80], the IC50 [1, 6] was 5.1 ± 3.2 µM, the IC50 [1, 9] was 2.1 µM and the IC50 [1, 7] was 1.72 µM and 1.7 µM and 8 µM and 8.04 µM and 8.28 µM and 7.95 µM and 2.49 µM and 2.41 µM. For the same compound, the IC50 [2] was > 100 µM, the ATP consumption ([2]; 0.1 μM OSM-LO-80, 0.1 µM) was 0.9991 and the ATP consumption ([2]; 1 μM OSM-LO-80, 1 µM) was 0.918 and 0.9991. The ATP consumption ([2]; 3 μM OSM-LO-80, 3 µM) was 0.8254 and 0.8439, the ATP consumption ([2]; 10 μM OSM-LO-80, 10 µM) was 0.7121 and 0.7363 and the ATP consumption ([2]; 30 μM OSM-LO-80, 30 µM) was 0.597 and 0.5984. For the same compound, the ATP consumption ([2]; 100 μM OSM-LO-80, 100 µM) was 0.5737 and 0.5517, the ATP consumption ([3]; 0.1 μM OSM-LO-80) was 0.9993 and 0.9657 and 0.9905 and the IC50 ([3]; 0.2 μM HsAsnRS, E. coli tRNA present, 37 °C, 1 h (Fig. 3C, D)) was > 100 µM. For the same compound, the ATP consumption ([3]; 1 μM OSM-LO-80) was 1 and 0.9892 and 0.9767, the ATP consumption ([3]; 3 μM OSM-LO-80) was 0.9847 and 1 and 0.9888 and the ATP consumption ([3]; 10 μM OSM-LO-80) was 1.009 and 0.9926 and 0.9928. The ATP consumption ([3]; 30 μM OSM-LO-80) was 0.9786 and 0.9717 and 1 and the ATP consumption ([3]; 100 μM OSM-LO-80) was 0.9628 and 0.9785 and 0.9921.

With `Cc1cc(Nc2ccc(S(F)(F)(F)(F)F)cc2)n2nc(C(C)(F)F)nc2n1` [DSM265] the “Fold Shift” value ([4]; DSM265_F3 vs Dd2-B2 parent) was 2.5, the “Fold Shift” value ([4]; DSM265_G7 vs Dd2-B2 parent) was 3.1 and the IC50 ([4]; read-out: Mean IC50 + SEM (N), recrudescent culture DSM265_F3) was 0.0566 µM. The IC50 ([4]; read-out: Mean IC50 + SEM (N), recrudescent culture DSM265_G7) was 0.071 µM, the IC50 ([5]; Plasmodium falciparum, DD2, read-out: Mean IC50 + SEM (N)) was 0.0226 µM and the “Minimum Inoculum for Resistance (MIR)” value ([5]; reference selection at 5 × IC50 (58 nM), 2 × 10^5 parasites per well, 96 wells) was 1.4 × 10^6 parasites. For the same compound, the recrudescent wells ([5]; reference selection at 5 × IC50 (58 nM), 96-well plate) was 14 and 14/96.

`CNS(=O)(=O)c1cccc(-c2cc3ncnc(N)c3s2)c1` [OSM-S-488] gave an IC50 [1, 8] of 12.7 µM and an IC50 [1, 7] of 13.8 µM.

For `NS(=O)(=O)c1cccc(-c2ccc3c(=O)[nH]cnc3c2)c1` [OSM-LO-87], the “antimalarial potency (in words)” value ([1]; 3D7 cultures) was “no antimalarial potency”, the IC50 [1, 6] was > 25 µM and the IC50 [1, 8] was > 25 µM. The IC50 [1, 7] was > 25 µM.

Reference: paper PMC10831071, “Reaction hijacking inhibition of Plasmodium falciparum asparagine tRNA synthetase” (Nature Communications, 2024)
